Each structure is given as a SMILES string. Where “and” joins values, the source holds several entries; their conditions need not be identical. Equal values may be shown once. Calls of active or inactive are those of the source. The rule behind the calls is not given here.

In the data set the test system is rodent lifetime carcinogenesis bioassay, tumor incidence TD50. Briefly: chronic cancer bioassays in animals – CPDB, compiled studies (AID 1745844).
[1] abbreviates: mouse, strain B6AKF1, females, oral dosing, site: any site (literature study), lesion: several types, types named in the paper, dosed 76 weeks, study length 76 weeks.
Where [2] appears, read: mouse, strain B6AKF1, females, oral dosing, site: liver, lesion: hepatoma, dosed 76 weeks, study length 76 weeks.
Where [3] appears, read: mouse, strain B6AKF1, females, oral dosing, site: lung, lesion: adenoma, dosed 76 weeks, study length 76 weeks.
Setting [4] is: mouse, strain B6AKF1, males, oral dosing, site: any site (literature study), lesion: several types, types named in the paper, dosed 76 weeks, study length 76 weeks.
[5] abbreviates: mouse, strain B6AKF1, males, oral dosing, site: liver, lesion: hepatoma, dosed 76 weeks, study length 76 weeks.
Where [6] appears, read: mouse, strain B6AKF1, males, oral dosing, site: lung, lesion: adenoma, dosed 76 weeks, study length 76 weeks.
Setting [7] is: mouse, strain B6C3F1, females, oral dosing, site: any site (literature study), lesion: several types, types named in the paper, dosed 76 weeks, study length 76 weeks.
The mark [8] stands for this setting: mouse, strain B6C3F1, females, oral dosing, site: liver, lesion: hepatoma, dosed 76 weeks, study length 76 weeks.
[9] abbreviates: mouse, strain B6C3F1, females, oral dosing, site: lung, lesion: adenoma, dosed 76 weeks, study length 76 weeks.
Setting [10] is: mouse, strain B6C3F1, males, oral dosing, site: any site (literature study), lesion: several types, types named in the paper, dosed 76 weeks, study length 76 weeks.
[11] abbreviates: mouse, strain B6C3F1, males, oral dosing, site: liver, lesion: hepatoma, dosed 76 weeks, study length 76 weeks.

Consider `c1cc(OCC2CO2)cc(OCC2CO2)c1` (centres undefined), for which the TD50 is, setting by setting: (mouse, strain B6C3F1, females, by gavage, site: any site (literature study), lesion: several types, types named in the paper, dosed 103 weeks, study length 105 weeks) 32.3 mg/kg/day; (mouse, strain B6C3F1, females, by gavage, site: liver, lesion: hepatocellular adenoma + hepatocellular carcinoma + neoplastic nodule, dosed 103 weeks, study length 105 weeks) 169 mg/kg/day; (mouse, strain B6C3F1, females, by gavage, site: liver, lesion: hepatocellular carcinoma, dosed 103 weeks, study length 105 weeks) 221 mg/kg/day; (mouse, strain B6C3F1, females, by gavage, site: lung, lesion: alveolar/bronchiolar adenoma + alveolar/bronchiolar carcinoma, dosed 103 weeks, study length 105 weeks) 4790 mg/kg/day; (mouse, strain B6C3F1, females, by gavage, site: stomach, lesion: papillomatosis + squamous-cell carcinoma + squamous-cell papilloma, dosed 103 weeks, study length 105 weeks) 17.9 mg/kg/day; (mouse, strain B6C3F1, females, by gavage, site: stomach, lesion: papillomatosis + squamous-cell papilloma, dosed 103 weeks, study length 105 weeks) 48.2 mg/kg/day. The TD50 (mouse, strain B6C3F1, females, by gavage, site: stomach, lesion: squamous-cell carcinoma, dosed 103 weeks, study length 105 weeks) is 36.3 mg/kg/day; the TD50 (mouse, strain B6C3F1, males, by gavage, site: any site (literature study), lesion: several types, types named in the paper, dosed 103 weeks, study length 104 weeks) came out at 36.6 mg/kg/day; the TD50 (mouse, strain B6C3F1, males, by gavage, site: liver, lesion: hepatocellular adenoma + hepatocellular carcinoma + neoplastic nodule, dosed 103 weeks, study length 104 weeks) is 84.7 mg/kg/day; the TD50 (mouse, strain B6C3F1, males, by gavage, site: lung, lesion: alveolar/bronchiolar adenoma + alveolar/bronchiolar carcinoma, dosed 103 weeks, study length 104 weeks) was determined as 1350 mg/kg/day; the TD50 (mouse, strain B6C3F1, males, by gavage, site: stomach, lesion: papillomatosis + squamous-cell carcinoma + squamous-cell papilloma, dosed 103 weeks, study length 104 weeks) is 37.8 mg/kg/day; the TD50 (mouse, strain B6C3F1, males, by gavage, site: stomach, lesion: papillomatosis + squamous-cell papilloma, dosed 103 weeks, study length 104 weeks) was 145 mg/kg/day. The TD50 is 55.5 mg/kg/day (mouse, strain B6C3F1, males, by gavage, site: stomach, lesion: squamous-cell carcinoma, dosed 103 weeks, study length 104 weeks); 8.53 mg/kg/day and 16 mg/kg/day (rat, strain Fischer 344, females, by gavage, site: any site (literature study), lesion: several types, types named in the paper, dosed 103 weeks, study length 104 weeks); 3.53 mg/kg/day (rat, strain Fischer 344, females, by gavage, site: forestomach, lesion: squamous-cell carcinoma + squamous-cell papilloma, dosed 103 weeks, study length 104 weeks); 5.93 mg/kg/day (rat, strain Fischer 344, females, by gavage, site: forestomach, lesion: squamous-cell carcinoma, dosed 103 weeks, study length 104 weeks); 8.95 mg/kg/day (rat, strain Fischer 344, females, by gavage, site: forestomach, lesion: squamous-cell papilloma, dosed 103 weeks, study length 104 weeks); 174 mg/kg/day (rat, strain Fischer 344, females, by gavage, site: liver, lesion: hepatocellular adenoma + hepatocellular carcinoma + neoplastic nodule, dosed 103 weeks, study length 104 weeks). For the same compound, the TD50 was 4.47 mg/kg/day (rat, strain Fischer 344, females, by gavage, site: stomach, lesion: squamous-cell carcinoma + squamous-cell papilloma, dosed 103 weeks, study length 104 weeks); 5.1 mg/kg/day (rat, strain Fischer 344, females, by gavage, site: stomach, lesion: squamous-cell carcinoma, dosed 103 weeks, study length 104 weeks); 45.5 mg/kg/day (rat, strain Fischer 344, females, by gavage, site: stomach, lesion: squamous-cell papilloma, dosed 103 weeks, study length 104 weeks); 2.43 mg/kg/day (rat, strain Fischer 344, males, by gavage, site: any site (literature study), lesion: several types, types named in the paper, dosed 98 weeks, study length 104 weeks); 4.61 mg/kg/day (rat, strain Fischer 344, males, by gavage, site: any site (literature study), lesion: several types, types named in the paper, dosed 103 weeks, study length 104 weeks); 2.33 mg/kg/day (rat, strain Fischer 344, males, by gavage, site: forestomach, lesion: squamous-cell carcinoma + squamous-cell papilloma, dosed 103 weeks, study length 104 weeks). Besides, the TD50 by setting is: (rat, strain Fischer 344, males, by gavage, site: forestomach, lesion: squamous-cell carcinoma, dosed 103 weeks, study length 104 weeks) 2.73 mg/kg/day; (rat, strain Fischer 344, males, by gavage, site: forestomach, lesion: squamous-cell papilloma, dosed 103 weeks, study length 104 weeks) 8.16 mg/kg/day; (rat, strain Fischer 344, males, by gavage, site: liver, lesion: hepatocellular adenoma + hepatocellular carcinoma + neoplastic nodule, dosed 98 weeks, study length 104 weeks) 114 mg/kg/day; (rat, strain Fischer 344, males, by gavage, site: liver, lesion: hepatocellular adenoma + hepatocellular carcinoma + neoplastic nodule, dosed 103 weeks, study length 104 weeks) 640 mg/kg/day; (rat, strain Fischer 344, males, by gavage, site: pituitary gland, lesion: adenoma, NOS, dosed 98 weeks, study length 104 weeks) 12.2 mg/kg/day; (rat, strain Fischer 344, males, by gavage, site: stomach, lesion: squamous-cell carcinoma + squamous-cell papilloma, dosed 98 weeks, study length 104 weeks) 2.89 mg/kg/day. In addition, the TD50 reads like this: (rat, strain Fischer 344, males, by gavage, site: stomach, lesion: squamous-cell carcinoma, dosed 98 weeks, study length 104 weeks) 3.06 mg/kg/day; (rat, strain Fischer 344, males, by gavage, site: stomach, lesion: squamous-cell papilloma, dosed 98 weeks, study length 104 weeks) 24.7 mg/kg/day; (rat, strain Fischer 344, males, by gavage, site: testis, lesion: interstitial-cell tumor, dosed 98 weeks, study length 104 weeks) 2.35 mg/kg/day.
Turning to `CCCCN(CCCC)C(=S)[S-].CCCCN(CCCC)C(=S)[S-].[Ni+2]`, the TD50 runs as follows: under setting [1], 0.185 mg/kg/day (inactive); under setting [3], 0.0869 mg/kg/day (inactive); under setting [6], 0.153 mg/kg/day (inactive); under setting [7], 0.174 mg/kg/day (inactive); under setting [9], 0.174 mg/kg/day (inactive); under setting [10], 0.0283 mg/kg/day (inactive). Also, the TD50 under setting [11] is 0.0509 mg/kg/day (inactive) and the TD50 (mouse, strain B6C3F1, males, oral dosing, site: lung, lesion: adenoma, dosed 76 weeks, study length 76 weeks) is 0.163 mg/kg/day (inactive). For the same compound, the carcinogen call is “negative (inactive)” under setting [2], “negative (inactive)” under setting [4], “negative (inactive)” under setting [5] and “negative (inactive)” under setting [8].
For the compound `CC(C)(OCc1ccc(-c2ccc(Cl)cc2)cc1)C(=O)O`, the carcinogen call is, setting by setting: (hamster, strain Syrian Golden, females, in feed, site: liver, lesion: one or several types, types not named, dosed 104 weeks, study length 104 weeks) “negative (inactive)”; (hamster, strain Syrian Golden, females, in feed, site: lung, lesion: one or several types, types not named, dosed 104 weeks, study length 104 weeks) “negative (inactive)”; (hamster, strain Syrian Golden, males, in feed, site: liver, lesion: one or several types, types not named, dosed 104 weeks, study length 104 weeks) “negative (inactive)”. In addition, the TD50 was 1510 mg/kg/day (inactive) (hamster, strain Syrian Golden, males, in feed, site: lung, lesion: one or several types, types not named, dosed 104 weeks, study length 104 weeks); 870 mg/kg/day (mouse, strain C57BL/10J, females, in feed, site: liver, lesion: hepatocellular carcinoma, dosed 78 weeks, study length 78 weeks); 1010 mg/kg/day (mouse, strain C57BL/10J, females, in feed, site: lung, lesion: one or several types, types not named, dosed 78 weeks, study length 78 weeks); 154 mg/kg/day (mouse, strain C57BL/10J, males, in feed, site: liver, lesion: hepatocellular adenoma, dosed 78 weeks, study length 78 weeks); 214 mg/kg/day (mouse, strain C57BL/10J, males, in feed, site: liver, lesion: hepatocellular carcinoma, dosed 78 weeks, study length 78 weeks); 62.5 mg/kg/day (rat, strain Alpk:APfSD, males, in feed, site: liver, lesion: hepatocellular adenoma, dosed 104 weeks, study length 104 weeks).
Consider `Nc1nc(-c2ccc([N+](=O)[O-])o2)cs1`, for which the TD50 (mouse, strain Swiss, females, in feed, site: any site (literature study), lesion: several types, types named in the paper, dosed 46 weeks, study length 55 weeks) came out at 6.83 mg/kg/day; the TD50 (mouse, strain Swiss, females, in feed, site: forestomach, lesion: several types, types named in the paper, dosed 46 weeks, study length 55 weeks) is 7.87 mg/kg/day; the TD50 (mouse, strain Swiss, females, in feed, site: forestomach, lesion: squamous-cell papilloma, dosed 46 weeks, study length 55 weeks) amounted to 11.5 mg/kg/day; the TD50 (rat, strain Fischer, females, in feed, site: forestomach, lesion: several types, types named in the paper, dosed 52 weeks, study length 68 weeks) was 5.85 mg/kg/day; the TD50 (rat, strain Fischer, females, in feed, site: forestomach, lesion: squamous-cell papilloma, dosed 52 weeks, study length 68 weeks) is 8.94 mg/kg/day; the TD50 (rat, strain Fischer, females, in feed, site: urinary bladder, lesion: several types, types named in the paper, dosed 52 weeks, study length 68 weeks) is 30.3 mg/kg/day.
Turning to `c1ccc2sc(SSc3nc4ccccc4s3)nc2c1`, the TD50 reads like this: under setting [1], 1380 mg/kg/day (inactive); under setting [4], 511 mg/kg/day (inactive); under setting [6], 1130 mg/kg/day (inactive); under setting [7], 432 mg/kg/day (inactive); under setting [9], 669 mg/kg/day (inactive); under setting [10], 401 mg/kg/day (inactive). Besides, the TD50 under setting [11] is 621 mg/kg/day (inactive). Moreover, the carcinogen call under setting [2] was “negative (inactive)”; the carcinogen call under setting [3] is “negative (inactive)”; the carcinogen call under setting [5] is “negative (inactive)”; the carcinogen call under setting [8] is “negative (inactive)”; the carcinogen call (mouse, strain B6C3F1, males, oral dosing, site: lung, lesion: several types, types named in the paper, dosed 76 weeks, study length 76 weeks) was “negative (inactive)”.
With `Brc1cc(Br)c(-c2c(Br)c(Br)c(Br)c(Br)c2Br)c(Br)c1Br`, the TD50 by setting is: (mouse, strain B6C3F1, females, in feed, site: any site (literature study), lesion: several types, types named in the paper, dosed 78 weeks, study length 78 weeks) 4.9 mg/kg/day; (mouse, strain B6C3F1, females, in feed, site: liver, lesion: hepatocellular carcinoma, dosed 78 weeks, study length 78 weeks) 13.7 mg/kg/day; (mouse, strain B6C3F1, females, in feed, site: liver, lesion: neoplastic nodule, dosed 78 weeks, study length 78 weeks) 4.89 mg/kg/day; (mouse, strain B6C3F1, males, in feed, site: any site (literature study), lesion: several types, types named in the paper, dosed 78 weeks, study length 78 weeks) 2.07 mg/kg/day; (mouse, strain B6C3F1, males, in feed, site: liver, lesion: hepatoblastoma, dosed 78 weeks, study length 78 weeks) 35.4 mg/kg/day; (mouse, strain B6C3F1, males, in feed, site: liver, lesion: hepatocellular carcinoma, dosed 78 weeks, study length 78 weeks) 3.44 mg/kg/day. Besides, the TD50 (mouse, strain B6C3F1, males, in feed, site: liver, lesion: neoplastic nodule, dosed 78 weeks, study length 78 weeks) was 2.86 mg/kg/day.

By TD50 is commonly meant the 50% point of the dose-response relation for the toxic effect studied.

These data come from PubChem BioAssay AID1745844 (Carcinogenic Potency Database (CPDB), 2022).
